From ChEMBL document CHEMBL1138858, “Small-molecule targeting of heat shock protein 90 chaperone function: rational identification of a new anticancer lead” (J Med Chem, 2006)
Activity calls are given as the source filed them. No cut-off for these calls is given here.

Tests used:
[1] = target: T1, Heat shock protein HSP90 (Homo sapiens) (UniProt P07900+P08238); assay: Activity at Hsp90 in HeLa cells assessed as reduction in telomerase activity by TRAP assay relative to control; assay type: cell-based; set-up: scale not given: the % may be the effect or the level left
[2] = target: T1, Heat shock protein HSP90 (Homo sapiens); assay: Activity at Hsp90 in DU145 cells assessed as reduction in telomerase activity by TRAP assay relative to control; assay type: cell-based; set-up: scale not given: the % may be the effect or the level left; details: DU-145
[3] = tested on: DU-145; assay: Cytotoxicity against DU145 cells after 72 hrs; assay type: cell-based; details: Homo sapiens, DU-145, 72 h
[4] = tested on: HeLa; assay: Cytotoxicity against HeLa cells after 72 hrs; assay type: cell-based; details: Homo sapiens
[5] = Cytotoxicity against JR8 cells after 72 hrs; assay type: cell-based; details: Homo sapiens, JR8, 72 h
[6] = Cytotoxicity against human WI38 cells after 72 hrs; assay type: cell-based; details: wi-38, 72 h
[7] = tested on: DU-145; assay: Induction of apoptosis in DU145 cells after 72 hrs at 62.5 uM; assay type: functional, Homo sapiens
[8] = tested on: HeLa; assay: Induction of apoptosis in HeLa cells after 72 hrs at 125 uM; assay type: functional, Homo sapiens
[9] = Induction of apoptosis in JR8 cells after 72 hrs at 125 uM; assay type: functional, Homo sapiens
[10] = tested on: DU-145; assay: Apoptotic activity against DU145 cells after 72 hrs; assay type: functional, Homo sapiens
[11] = tested on: HeLa; assay: Apoptotic activity against HeLa cells after 72 hrs; assay type: functional, Homo sapiens
[12] = Apoptotic activity against JR8 cells after 72 hrs; assay type: functional, Homo sapiens
[13] = target: T2, Caspase-3 (Homo sapiens) (UniProt P42574); assay: Activation of caspase 3 in DU145 cells assessed as hydrolysis of DEVD-pNA […] substrate; assay type: cell-based; details: DU-145
T2 sequence (whole entry): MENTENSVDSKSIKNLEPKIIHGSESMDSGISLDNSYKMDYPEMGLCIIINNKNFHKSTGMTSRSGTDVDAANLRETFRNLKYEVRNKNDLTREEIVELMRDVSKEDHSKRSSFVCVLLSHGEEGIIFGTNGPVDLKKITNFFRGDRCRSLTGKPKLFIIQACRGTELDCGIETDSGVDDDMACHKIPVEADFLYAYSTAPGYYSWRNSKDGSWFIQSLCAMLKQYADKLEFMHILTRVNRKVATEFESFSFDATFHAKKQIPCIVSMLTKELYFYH

[14] = target: T2, Caspase-3 (Homo sapiens); assay: Activation of caspase 3 in HeLa cells assessed as hydrolysis of DEVD-pNA […] substrate; assay type: cell-based
[15] = target: T3, Caspase-9 (Homo sapiens) (UniProt P55211); assay: Activation of caspase 9 in DU145 cells assessed as hydrolysis of LEHD-pNA […] substrate; assay type: cell-based; details: DU-145
T3 sequence (whole entry): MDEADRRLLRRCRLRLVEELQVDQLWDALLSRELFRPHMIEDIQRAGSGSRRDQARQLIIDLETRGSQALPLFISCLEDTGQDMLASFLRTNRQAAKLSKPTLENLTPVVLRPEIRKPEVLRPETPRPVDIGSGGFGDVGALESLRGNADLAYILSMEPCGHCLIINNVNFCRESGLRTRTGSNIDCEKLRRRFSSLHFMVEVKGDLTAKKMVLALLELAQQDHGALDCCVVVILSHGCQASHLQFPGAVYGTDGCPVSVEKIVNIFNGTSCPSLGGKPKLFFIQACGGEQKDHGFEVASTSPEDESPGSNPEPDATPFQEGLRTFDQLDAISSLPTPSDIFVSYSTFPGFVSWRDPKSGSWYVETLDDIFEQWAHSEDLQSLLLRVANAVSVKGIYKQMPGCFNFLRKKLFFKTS

[16] = target: T3, Caspase-9 (Homo sapiens); assay: Activation of caspase 9 in HeLa cells assessed as hydrolysis of LEHD-pNA […] substrate; assay type: cell-based

| SMILES | Activity [1] | Activity [2] | IC50 [3] | IC50 [4] | IC50 [5] | Activity [6] | Activity [7] | Activity [8] | Activity [9] | Activity [10] | Activity [11] | Activity [12] | Activity [13] | Activity [14] | Activity [15] | Activity [16] |
| --- | --- | --- | --- | --- | --- | --- | --- | --- | --- | --- | --- | --- | --- | --- | --- | --- |
| NC(=O)c1ncn([C@@H]2O[C@H](COP(=O)(O)O)[C@@H](O)[C@H]2O)c1N | 70% | 70% | 59 µM | 126 µM | 105 µM | Not Active | 34% | 27% | 20% | 28% | 23% | 13% | Active | Active | Active | Active |
| C=CCNC1=C2C[C@@H](C)C[C@H](OC)[C@H](O)[C@@H](C)/C=C(\C)[C@H](OC(N)=O)[C@@H](OC)/C=C\C=C(/C)C(=O)NC(=CC1=O)C2=O [TANESPIMYCIN] | – | – | 68.3 µM | 108 µM | 53.3 µM | – | – | – | – | 15.9% | 10.8% | 12% | – | – | – | – |
